Results published in BigSolDB 2.1.

`COc1ccc2[nH]cc(CCNC(C)=O)c2c1` showed a solubility (mole fraction) (in ethanol, 278.15 K) of 0.00853, a solubility (mole fraction) (in ethanol, 283.15 K) of 0.0113 and a solubility (mole fraction) (in ethanol, 288.15 K) of 0.0151. The solubility (mole fraction) (in ethanol, 293.15 K) was 0.02, the solubility (mole fraction) (in ethanol, 298.15 K) was 0.0254 and the solubility (mole fraction) (in ethanol, 303.15 K) was 0.032. For the same compound, the solubility (mole fraction) (in ethanol, 308.15 K) was 0.0406, the solubility (mole fraction) (in ethanol, 313.15 K) was 0.0527 and the solubility (mole fraction) (in ethanol, 318.15 K) was 0.0665. It also gave a solubility (mole fraction) (in ethanol, 323.15 K) of 0.0844, a solubility (mole fraction) (in isobutanol, 278.15 K) of 0.00406 and a solubility (mole fraction) (in isobutanol, 283.15 K) of 0.00538. The solubility (mole fraction) (in isobutanol, 288.15 K) was 0.0073, the solubility (mole fraction) (in isobutanol, 293.15 K) was 0.00972 and the solubility (mole fraction) (in isobutanol, 298.15 K) was 0.0127. The solubility (mole fraction) (in isobutanol, 303.15 K) was 0.0167, the solubility (mole fraction) (in isobutanol, 308.15 K) was 0.0212 and the solubility (mole fraction) (in isobutanol, 313.15 K) was 0.0276. The solubility (mole fraction) (in isobutanol, 318.15 K) was 0.0352, the solubility (mole fraction) (in isobutanol, 323.15 K) was 0.0441 and the solubility (mole fraction) (in methanol, 278.15 K) was 0.0116. The solubility (mole fraction) (in methanol, 283.15 K) was 0.0158, the solubility (mole fraction) (in methanol, 288.15 K) was 0.0211 and the solubility (mole fraction) (in methanol, 293.15 K) was 0.0282. It also gave a solubility (mole fraction) (in methanol, 298.15 K) of 0.0357, a solubility (mole fraction) (in methanol, 303.15 K) of 0.0462 and a solubility (mole fraction) (in methanol, 308.15 K) of 0.0594. It also gave a solubility (mole fraction) (in methanol, 313.15 K) of 0.0757, a solubility (mole fraction) (in methanol, 318.15 K) of 0.0963 and a solubility (mole fraction) (in methanol, 323.15 K) of 0.122. The solubility (mole fraction) (in methyl acetate, 278.15 K) was 0.00303, the solubility (mole fraction) (in methyl acetate, 283.15 K) was 0.00406 and the solubility (mole fraction) (in methyl acetate, 288.15 K) was 0.00531. The solubility (mole fraction) (in methyl acetate, 293.15 K) was 0.00688, the solubility (mole fraction) (in methyl acetate, 298.15 K) was 0.0085 and the solubility (mole fraction) (in methyl acetate, 303.15 K) was 0.0112. It also gave a solubility (mole fraction) (in methyl acetate, 308.15 K) of 0.0144, a solubility (mole fraction) (in methyl acetate, 313.15 K) of 0.0191 and a solubility (mole fraction) (in methyl acetate, 318.15 K) of 0.0244. The solubility (mole fraction) (in methyl acetate, 323.15 K) was 0.0306, the solubility (mole fraction) (in n-butanol, 278.15 K) was 0.00518 and the solubility (mole fraction) (in n-butanol, 283.15 K) was 0.00676. For the same compound, the solubility (mole fraction) (in n-butanol, 288.15 K) was 0.009, the solubility (mole fraction) (in n-butanol, 293.15 K) was 0.0118 and the solubility (mole fraction) (in n-butanol, 298.15 K) was 0.0152. For the same compound, the solubility (mole fraction) (in n-butanol, 303.15 K) was 0.0199, the solubility (mole fraction) (in n-butanol, 308.15 K) was 0.0257 and the solubility (mole fraction) (in n-butanol, 313.15 K) was 0.0328. For the same compound, the solubility (mole fraction) (in n-butanol, 318.15 K) was 0.0425, the solubility (mole fraction) (in n-butanol, 323.15 K) was 0.0536 and the solubility (mole fraction) (in n-hexanol, 278.15 K) was 0.0038. The solubility (mole fraction) (in n-hexanol, 283.15 K) was 0.00497, the solubility (mole fraction) (in n-hexanol, 288.15 K) was 0.00679 and the solubility (mole fraction) (in n-hexanol, 293.15 K) was 0.00872. The solubility (mole fraction) (in n-hexanol, 298.15 K) was 0.0114, the solubility (mole fraction) (in n-hexanol, 303.15 K) was 0.0146 and the solubility (mole fraction) (in n-hexanol, 308.15 K) was 0.019. For the same compound, the solubility (mole fraction) (in n-hexanol, 313.15 K) was 0.0244, the solubility (mole fraction) (in n-hexanol, 318.15 K) was 0.0308 and the solubility (mole fraction) (in n-hexanol, 323.15 K) was 0.0393. It also gave a solubility (mole fraction) (in n-pentanol, 278.15 K) of 0.00515, a solubility (mole fraction) (in n-pentanol, 283.15 K) of 0.00671 and a solubility (mole fraction) (in n-pentanol, 288.15 K) of 0.00889. For the same compound, the solubility (mole fraction) (in n-pentanol, 293.15 K) was 0.0114, the solubility (mole fraction) (in n-pentanol, 298.15 K) was 0.0145 and the solubility (mole fraction) (in n-pentanol, 303.15 K) was 0.0184. The solubility (mole fraction) (in n-pentanol, 308.15 K) was 0.0233, the solubility (mole fraction) (in n-pentanol, 313.15 K) was 0.0291 and the solubility (mole fraction) (in n-pentanol, 318.15 K) was 0.0365. For the same compound, the solubility (mole fraction) (in n-pentanol, 323.15 K) was 0.0444, the solubility (mole fraction) (in n-propanol, 278.15 K) was 0.00602 and the solubility (mole fraction) (in n-propanol, 283.15 K) was 0.00792. It also gave a solubility (mole fraction) (in n-propanol, 288.15 K) of 0.0108, a solubility (mole fraction) (in n-propanol, 293.15 K) of 0.0147 and a solubility (mole fraction) (in n-propanol, 298.15 K) of 0.0197. It also gave a solubility (mole fraction) (in n-propanol, 303.15 K) of 0.0254, a solubility (mole fraction) (in n-propanol, 308.15 K) of 0.0329 and a solubility (mole fraction) (in n-propanol, 313.15 K) of 0.0418. For the same compound, the solubility (mole fraction) (in n-propanol, 318.15 K) was 0.0538 and the solubility (mole fraction) (in n-propanol, 323.15 K) was 0.0701.
